In patent US20030013041A1, “Optical data carrier comprising a cationic aminoheterocyclic dye as light-absorbent compound in the information layer” (priority 2001, published 2003):

How the values were obtained:
Type in all cases: physicochemical
[1] = Absorption spectrum measured in solution; conditions: for λmax (methanol): in methanol; for λmax (methylene chloride): in methylene chloride; for λ1/2-λ1/10 (long wavelength flank): on the long wavelength flank; for λ1/2-λ1/10 (short wavelength flank): on the short wavelength flank
Description: In the case of a write-once optical data carrier according to the invention which is written on and read by means of the light of a blue laser, preference is also given to cationic aminoheterocyclic dyes whose absorption maximum λmax2 is in the range from 420 to 550 nm, where the wavelength λ½ at which the absorbance in the short wavelength flank of the absorption maximum at the wavelength λmax2 is half of the absorbance value at λmax2 and the wavelength λ 1/10 at which the absorbance in the short wavelength flank of the absorption maximum at the wavelength λmax2 is one tenth of the absorbance value at λmax2 are preferably not more than 50 nm apart. Such a cationic aminoheterocyclic dye preferably has no shorter-wavelength maximum λmax1 down to a wavelength of 350 nm, particularly preferably down to 320 nm, very particularly preferably down to 290 nm.
In the case of a write-once optical data carrier according to the invention which is written on and read by means of the light of a red laser, preference is given to cationic aminoheterocyclic dyes whose absorption maximum λmax2 is in the range from 500 to 650 nm, where the wavelength λ½ at which the absorbance in the long wavelength flank of the absorption maximum at the wavelength λmax2 is half of the absorbance value at λmax2 and the wavelength λ 1/10 at which the absorbance in the long wavelength flank of the absorption maximum at the wavelength λmax2 is one tenth of the absorbance value at λmax2 are preferably not more than 50 nm apart. Such a cationic aminoheterocyclic dye preferably has no longer-wavelength maximum λmax3 up to a wavelength of 750 nm, particularly preferably up to 800 nm, very particularly preferably up to 850 nm.
The absorption spectra are measured, for example, in solution.
Suitable cationic aminoheterocyclic dyes having the required spectral properties are, in particular, those in which the dipole moment change Δμ=|μg−μag|, i.e. the positive difference between the dipole moments in the ground state and in the first excited state, is very small, preferably <5 D, particularly preferably <2 D. A method of determining such a dipole moment change Ap is described, for example, in F. Wuirthner et al., Angew. Chem. 1997, 109, 2933, and in the literature cited therein. A low solvent-induced wavelength shift (methanol/methylene chloride) is likewise a suitable selection criterion. Preference is given to cationic aminoheterocyclic dyes whose solvent-induced wavelength shift Δλ=|λmethylene chloride−λmethanol|, i.e. the positive difference between the absorption wavelengths in the solvents methylene chloride and methanol, is <25 nm, particularly preferably <15 nm, very particularly preferably <5 nm.

Solubility in TFP = assay: Solubility in TFP
Film formation = assay: Film formation
Description: Apart from the abovementioned optical properties, the writeable information layer comprising light-absorbent organic substances has to have a substantially amorphous morphology to keep the noise signal during writing or reading as small as possible. For this reason, it is particularly preferred that crystallization of the light-absorbent substances be prevented in the application of the substances by spin coating from a solution, by vapour deposition and/or sublimation during subsequent covering with metallic or dielectric layers under reduced pressure.

SMILES | ε ([1]; at λmax in methanol) | ε ([1]; at λmax in methylene chloride) | λmax (methanol) [1] [nm] | λmax (methylene chloride) [1] [nm] | λ1/2-λ1/10 (long wavelength flank) [1] [nm] | λ1/2-λ1/10 (short wavelength flank) [1] [nm] | Solubility (Solubility in TFP) [%] | Film appearance (Film formation) | ε ([1]; solvent not stated, printed after λmax in methanol and methylene chloride)
CCCCN(CCCC)c1ccc(/C=C/C2=[N+](C)c3ccccc3C2(C)C)s1 [Example 3] | 68 555 l/mol cm | 98 554 l/mol cm | 528 | 543 | 14 | 34 | > 2 | Glass-like film | 
CC1(C)C2=NC(=[N+]3CCCC3)SC2=Cc2sc(N3CCCC3)nc21 [Example 7] |  | 37153 L/mol/cm |  | 616 | 27 | 50 |  |  | 
CN(C)c1ccc(/C=C/C2=[N+](C)c3ccccc3C2(C)C)o1 [Example 2] | 87 670 l/mol cm |  | 551 |  | 30 | 41 | > 2 | Glass-like film | 

Further lines, results first:

ε ([1]; at λmax in methanol) | ε ([1]; at λmax in methylene chloride) | λmax (methanol) [1] [nm] | λmax (methylene chloride) [1] [nm] | λ1/2-λ1/10 (long wavelength flank) [1] [nm] | λ1/2-λ1/10 (short wavelength flank) [1] [nm] | Solubility (Solubility in TFP) [%] | Film appearance (Film formation) | ε ([1]; solvent not stated, printed after λmax in methanol and methylene chloride) | SMILES
 | 43650 L/mol/cm |  | 623 |  |  |  |  |  | CN(c1ccccc1)c1nc2c(s1)C=C1S/C(=[N+](\C)c3ccccc3)N=C1C2(C)C [Example 8]
 |  | 581 | 587 | 14.5 | 42 | > 2 |  | 102 800 l/mol cm | C(=C1/SC(=[N+]2CCOCC2)N=C1c1ccccc1)/c1sc(N2CCOCC2)nc1-c1ccccc1 [Example 1]
 | 104 970 l/mol cm |  | 601 | 19 | 42 | > 2 |  |  | CN(C)c1ccc(/C=C2\SC(=[N+]3CCOCC3)N=C2c2ccccc2)cc1 [Example 4]
